Patent US4101676A, “Diphenylpropylamines to treat depression” (Beecham Group Limited, priority 1973, dated 1978)
Counter-ions that a name gives are not always drawn.

Assays:
reserpine hypothermia [1] = experiment: Prevention of Reserpine Hypothermia; type: in vivo, mice (Carworth Europe male); settings: for Reserpine Prevention Δ^6: 6 hours; for Reserpine Prevention Δ^24: 24 hours; for effects on the Reserpine Prevention tests: comparison of the two isomers; for Δ^6 / Δ^24: mice, oral; for Δ^6: cumulative temperature difference from controls at 6 hours; for Δ^24: cumulative temperature difference from controls at 24 hours
Method: The method of Spencer [Antidepressant Drugs, 194 (1967) ] was used. Groups of ten mice are given oral doses of test compound 24 18 and 2 hours before an intravenous injection of reserpine base (Serpasil). Oral temperatures of the mice are taken immediately before administration of reserpine and then 2 4 6 and 24 hours afterwards.
Mean temperatures of groups given test compounds are compared with reserpinised controls using a Students t test. Compounds causing a significant difference at the level P < 0.001 are considered active. In order to quantify anti-reserpine activity cumulative temperature differences from controls at 6 hours and 24 hours (Δ^6 and Δ^24 ) are calculated.
(§1) Carworth Europe male mice are used for all experiments apart from that using the cat nictitating membrane and test compounds are administered orally as solutions in distilled water. Compounds for intravenous administration are dissolved in 0.9% saline apart from Reserpine which is dissolved in dilute acetic acid buffered to pH5. Unless otherwise stated, the dosing interval is one hour.
(§2) The Reserpine Prevention, Reserpine Reversal and Noradrenaline Uptake Inhibition tests were carried out as described in the previous Example. The Mydriasis tests was also as described in the previous Example but using 20 mg/kg doses of each compound after which a curve was plotted of percentage increase in pupil diameter vertus time and the percentage increase was integrated with respect to time for 0-120 minutes after dosing and the result expressed as a percentage.

reserpine hypothermia [2] = experiment: Reversal of Reserpine Hypothermia; type: in vivo, mice (Carworth Europe male)
Method: Seventeen hours later the oral temperatures of the mice are taken and various doses of test compound or vehicle given subcutaneously. Temperatures are taken 1, 2, 4 6 and 24 hours later and the results are analysed as in Test 1 (The subcutaneous route is used for convenience as the very depressed reserpinised mice cannot be reliably dosed orally).
as §1, §2

[3] = test system: pupil diameter (mydriasis); experiment: Mydriasis integral 0-120 minutes; type: in vivo, mice; settings: for Mydriasis Integral Percent 120 Mins.: mice, 20 mg/kg, 0-120 minutes
Method: Groups of five mice are pre-selected for uniformity of pupil diameter using a binocular microscope with a calibrated eye-piece. Pupil sizes are measured at various intervals after an intraperitoneal injection of test compound and at the peak time a curve plotted of percentage increase in pupil diameter versus log dose. From this the dose causing a 200% increase in pupil size (this lies on the linear part of the curve) is found
as §1, §2

Noradrenaline uptake = experiment: Inhibition of Noradrenaline Uptake in vitro (brain synaptosomes); type: biochemical, male Wistar rats; settings: for Inhibition of Noradrenaline Uptake In Vitro %: 10^-6 molar (Pharmacology 2)
Method: Synaptosomes are isolated from the brains of male Wistar rats (150-170g.) and monamine uptake determined by the method of Snyder and Coyle (1968) [Synder S. H. and Coyle J. T. J. Pharmac. exp. Ther. 165 (1968) 78-86]. Uptake was determined over a ten minute period instead of the normal five minutes.
as §2

[4] = test system: pupil diameter (mydriasis, anticholinergic side effect); experiment: Mydriatic Response in Mice (dose causing 200% increase in pupil size); type: in vivo
Method: Groups of five mice are pre-selected for uniformity of pupil diameter using a binocular microscope with a calibrated eye-piece. Pupil sizes are measured at various intervals after an intraperitoneal injection of test compound and at the peak time a curve plotted of percentage increase in pupil diameter versus log dose. […] Carworth Europe male mice are used for all experiments apart from that using the cat nictitating membrane and test compounds are administered orally as solutions in distilled water. […] Unless otherwise stated, the dosing interval is one hour.

[5] = target: T1, Guinea Pig Ileum (Cavia porcellus); experiment: pA2 Determination on Guinea Pig Ileum (antagonism to Acetylcholine); settings: in vitro, read-out: pA2 on Iillium (converted)
T1 construct: from tissue; host or cells: guinea pig ileum
T1 sequence (H0W1Z3 1-590): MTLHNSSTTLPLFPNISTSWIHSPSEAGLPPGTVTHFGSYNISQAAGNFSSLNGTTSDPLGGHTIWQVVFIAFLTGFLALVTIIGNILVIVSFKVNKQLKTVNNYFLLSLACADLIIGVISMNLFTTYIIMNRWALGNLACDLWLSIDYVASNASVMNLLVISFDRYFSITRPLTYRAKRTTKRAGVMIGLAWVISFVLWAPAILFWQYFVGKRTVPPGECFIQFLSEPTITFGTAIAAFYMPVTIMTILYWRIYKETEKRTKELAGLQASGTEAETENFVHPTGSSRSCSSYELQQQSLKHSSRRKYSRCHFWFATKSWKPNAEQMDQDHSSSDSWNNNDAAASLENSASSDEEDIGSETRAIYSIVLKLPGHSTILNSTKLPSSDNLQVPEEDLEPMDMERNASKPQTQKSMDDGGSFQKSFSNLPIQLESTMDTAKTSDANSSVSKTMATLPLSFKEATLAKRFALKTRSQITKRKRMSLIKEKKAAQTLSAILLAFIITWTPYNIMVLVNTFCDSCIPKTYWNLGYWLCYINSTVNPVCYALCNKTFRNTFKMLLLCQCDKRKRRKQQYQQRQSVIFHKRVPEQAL
Text: It is thus a means of expressing anticholinergic activity which is independent of the dose of Acetylcholine and the piece of tissue used. The method used is similar to that of Schild, [Brit. J. Pharmacol. 14 (1959) 48] the tissue being bathed in Tyrode solution and a dose response curved for Acetylcholine being obtained.

[6] = Pharmacology 2, dose 10 (unit not given)
[7] = Pharmacology 2, dose 20 (unit not given)
[8] = Pharmacology 2, dose 40 (unit not given)
[9] = Pharmacology 2, dose 10 (unit not given), 6 hours
[10] = Pharmacology 2, dose 10 (unit not given), 24 hours
[11] = Pharmacology 2, dose 20 (unit not given), 6 hours
[12] = Pharmacology 2, dose 20 (unit not given), 24 hours
[13] = Pharmacology 2, dose 40 (unit not given), 6 hours
[14] = Pharmacology 2, dose 40 (unit not given), 24 hours
[15] = mice, intraperitoneal, at peak time

For CN(C)CC(O)C(c1ccccc1)c1ccccc1 (racemic) [Compound B, (+)-3-Dimethylamino-1,1-diphenyl-propan-2-ol], the “Reserpine Prevention Δ^6” value (reserpine hypothermia [1]; [6]) was 12 °C, the “Reserpine Prevention Δ^24” value (reserpine hypothermia [1]; [6]) was 15 °C and the “Reserpine Prevention Δ^6” value (reserpine hypothermia [1]; [7]) was 16 °C. The “Reserpine Prevention Δ^24” value (reserpine hypothermia [1]; [7]) was 23 °C, the “Reserpine Prevention Δ^6” value (reserpine hypothermia [1]; [8]) was 16 °C and the “Reserpine Prevention Δ^24” value (reserpine hypothermia [1]; [8]) was 25 °C. The “effects on the Reserpine Prevention tests” value (reserpine hypothermia [1]) was “roughly equal effects”, the “Reserpine Reversal Δ^6” value (reserpine hypothermia [2]; [9]) was 16 °C and the “Reserpine Reversal Δ^24” value (reserpine hypothermia [2]; [10]) was 27 °C. The “Reserpine Reversal Δ^6” value (reserpine hypothermia [2]; [11]) was 15 °C, the “Reserpine Reversal Δ^24” value (reserpine hypothermia [2]; [12]) was 19 °C and the “Reserpine Reversal Δ^6” value (reserpine hypothermia [2]; [13]) was 13 °C. The “Reserpine Reversal Δ^24” value (reserpine hypothermia [2]; [14]) was 19 °C, the “activity on the Reserpine Reversal Test” value (reserpine hypothermia [2]; low doses, (+)-isomer versus (-)-isomer) was “more active than the (-)-isomer on the Reserpine Reversal Test at low doses” and the “Mydriasis Integral Percent 120 Mins.” value [3] was 12600%. The “Inhibition of Noradrenaline Uptake In Vitro %” value (Noradrenaline uptake) was 40%.
For CN(C)CC(O)C(c1ccccc1)c1ccccc1 (stereo not drawn) [CH3 CH3 H H H HBr, 3-Dimethylamino-1,1-diphenyl-propan-2-ol], the “Δ^6” value (reserpine hypothermia [1]; 20 mg/kg) was 13 °C, the “Δ^24” value (reserpine hypothermia [1]; 20 mg/kg) was 19 °C and the “Δ^6” value (reserpine hypothermia [2]; mice, subcutaneous, 20 mg/kg, 6 hours) was 14 °C. For the same compound, the “Δ^24” value (reserpine hypothermia [2]; mice, subcutaneous, 20 mg/kg, 24 hours) was 22 °C, the “Mydriasis-Dose to cause 200% effect” value [4, 15] was 41 mg/kg and the Kb [5] was 10 µM.
For CN(C)CC(O)C(c1ccccc1)c1ccccc1 (single isomer, unassigned; (-)) [Compound C, (-)-3-Dimethylamino-1,1-diphenylpropan-2-ol], the “Reserpine Prevention Δ^6” value (reserpine hypothermia [1]; [6]) was 11 °C, the “Reserpine Prevention Δ^24” value (reserpine hypothermia [1]; [6]) was 17 °C and the “Reserpine Prevention Δ^6” value (reserpine hypothermia [1]; [7]) was 13 °C. For the same compound, the “Reserpine Prevention Δ^24” value (reserpine hypothermia [1]; [7]) was 19 °C, the “Reserpine Prevention Δ^6” value (reserpine hypothermia [1]; [8]) was 12 °C and the “Reserpine Prevention Δ^24” value (reserpine hypothermia [1]; [8]) was 19 °C. For the same compound, the “effects on the Reserpine Prevention tests” value (reserpine hypothermia [1]) was “roughly equal effects”, the “Reserpine Reversal Δ^6” value (reserpine hypothermia [2]; [9]) was 6 °C and the “Reserpine Reversal Δ^24” value (reserpine hypothermia [2]; [10]) was 3 °C. The “Reserpine Reversal Δ^6” value (reserpine hypothermia [2]; [11]) was 16 °C, the “Reserpine Reversal Δ^24” value (reserpine hypothermia [2]; [12]) was 19 °C and the “Reserpine Reversal Δ^6” value (reserpine hypothermia [2]; [13]) was 13 °C. For the same compound, the “Reserpine Reversal Δ^24” value (reserpine hypothermia [2]; [14]) was 20 °C, the peripheral anticholinergic effects ([3]; (-)-isomer versus (+)-isomer) was “fewer peripheral anticholinergic effects than the (+)-isomer” and the “Mydriasis Integral Percent 120 Mins.” value [3] was 6700%. For the same compound, the “Inhibition of Noradrenaline Uptake In Vitro %” value (Noradrenaline uptake) was 64%.
With CN(C)CCC=C1c2ccccc2CCc2ccccc21 [Amitriptyline hydrochloride, reference compound] the “Δ^6” value (reserpine hypothermia [1]; 30 mg/kg) was 12 °C, the “Δ^24” value (reserpine hypothermia [1]; 30 mg/kg) was 22 °C and the “Mydriasis-Dose to cause 200% effect” value ([4]; mouse, in vivo, ip) was 6 mg/kg.
In the case of CNCC(O)C(c1ccccc1)c1ccccc1 (stereo not drawn) [CH3 H H H H HCl, 3-Methylamino-1,1-diphenyl-propan-2-ol], the “Δ^6” value (reserpine hypothermia [1]; 20 mg/kg) is reported as over 10 °C, the “Δ^24” value (reserpine hypothermia [1]; 20 mg/kg) is reported as over 10 °C and the “Inhibition of Monoamine Uptake NA (%)” value (Noradrenaline uptake; 10^-5 molar) is reported as 85%. For the same compound, the “Inhibition of Monoamine Uptake NA (%)” value (Noradrenaline uptake; 10^-6 molar (Table 4)) was 65%, the “Mydriasis-Dose to cause 200% effect” value [4, 15] was 114 mg/kg and the Kb [5] was 10 µM.
For OC(CN1CCOCC1)C(c1ccccc1)c1ccccc1 (stereo not drawn) [H H morpholino], the “Δ^6” value (reserpine hypothermia [1]; 100 mg/kg) was 10 °C and the “Δ^24” value (reserpine hypothermia [1]; 100 mg/kg) was 10 °C.
With CN(Cc1ccccc1)CC(O)C(c1ccccc1)c1ccccc1 (stereo not drawn) [CH2C6H5 CH3 H H H HCl, 3-(N-Benzyl-N-methylamino)-1,1-diphenyl-propan-2-ol] the “Δ^6” value (reserpine hypothermia [1]; 30 mg/kg) was 10 °C and the “Δ^24” value (reserpine hypothermia [1]; 30 mg/kg) was 11 °C.
For OC(CN1CCCCC1)C(c1ccccc1)c1ccccc1 (stereo not drawn) [H H piperidine, 3-N-Piperidino-1 1-diphenyl-propan-2-ol], the “Δ^6” value (reserpine hypothermia [1]; 100 mg/kg) was 9 °C and the “Δ^24” value (reserpine hypothermia [1]; 100 mg/kg) was 10 °C.
For CN(C)CC(O)C(c1ccccc1)c1cccc(Cl)c1 (stereo not drawn) [CH3 CH3 H Cl H HCl, 3-Dimethylamino-1-m-chlorophenyl-1-phenyl-propan-2-ol], the “Δ^6” value (reserpine hypothermia [1]; 20 mg/kg) was 10 °C and the “Δ^24” value (reserpine hypothermia [1]; 20 mg/kg) was 17 °C.
In the case of Cc1ccccc1C(c1ccccc1)C(O)CN(C)C (stereo not drawn) [CH3 CH3 CH3 H H HCl, 3-Dimethylamino-1-phenyl-1-o-tolyl-propan-2-ol], the “Δ^6” value (reserpine hypothermia [1]; 30 mg/kg) is reported as 11 °C and the “Δ^24” value (reserpine hypothermia [1]; 30 mg/kg) is reported as 14 °C.
